The values that follow are results of earlier work, collected in patent US20180116952A1, “ORAL PHARMACEUTICAL COMPOSITION OF METHYL[…] METHODS OF USE THEREOF” (Lupin Atlantis Holdings SA, priority 2015, published 2018).

This data set deals with patients with drug-induced refractory headache. The following applies: 60 consecutive patients with drug-induced refractory headache.

As to `CCC(CO)NC(=O)[C@@H]1C=C2c3cccc4[nH]cc(c34)C[C@H]2N(C)C1.O=C(O)/C=C\C(=O)O` (stereo partly shown) [methylergonovine, methylergonovine maleate], the “patients in whom methylergonovine was effective” value is 73%.
